Structures can show the parent of a compound that is named as a salt.
Legend:
Format in all cases: cell-based
[1] = system: human monocytes stimulated with LPS; test: Production of IL-1β, TNF-α and IL-6 in human monocytes stimulated with LPS (Luminex multiplex assay); conditions: 50 ng/ml LPS, MT8 10 or 30 µM, 18 hours
Method: (§1) LipoPoliSaccharide (LPS) is an endotoxin that induces a strong immune reaction. In the presence of LPS, immune system cells such as monocytes and dendritic cells react by producing high amounts of inflammatory cytokines such as IL-1β, TNFα and IL-6. To test the ability of MT8 to modulate the production of these cytokines, human monocytes (isolated from buffy coat using anti-CD14 antibody) and human monocytes-derived dendritic cells (MDCs) were cultured at 10^6 cells/ml in complete medium and stimulated with 50 ng/ml of LPS, in the presence or absence of MT8 at a concentration of 10 or 30 µM. After 18 hours of incubation, the supernatants of both cell types were collected and the production of IL-1β, TNF-α, and IL-6 was evaluated by Luminex multiplex assay technology. […] In particular, MT8 was able to decrease the amount of IL-1β in a dose-dependent manner in both monocytes and dendritic cells. In the latter, the reduction recorded was over 50% (FIG. 1B), while in monocytes the reduction was about 17% (FIG. 1A). In any case, this reduction is statistically significant. Similar results were obtained regarding the production of TNF-α which, in the presence of MT8, is reduced by about 17% in monocytes (FIG. 1C) and by 19% in dendritic cells (FIG. 1D). Again, the reduction observed in the presence of MT8 is statistically significant. […] Also, in the latter case the reduction is statistically significant.

[2] = system: human dendritic cells stimulated with LPS; test: Production of IL-1β, TNF-α and IL-6 in human monocytes-derived dendritic cells stimulated with LPS (Luminex multiplex assay); conditions: 50 ng/ml LPS, MT8 10 or 30 µM, 18 hours
Method: as §1

ADAR1 = test: Activation of the homodimeric complex of ADAR1 in HEK-293 TrkA cells (immunoprecipitation, Western Blot, densitometry); conditions: serum-free 18 hours, 10 µM MT8, 60 minutes, FIG. 2
Method: In order to study the effect of the MT8 compound on the ADAR1 enzyme, HEK-293 TrkA cells were cultured in serum-free medium for 18 hours and incubated with or without 10 µM of MT8 for another 60 minutes. The cells were then lysed in RIPA buffer (50 mM Tris-HCI, pH 7.4; 150 mM NaCl; 2 mM EDTA; 1 mM NaF; 1 mM sodium orthovanadate, 1% NP-40) and the proteins immunoprecipitated with Anti-ADAR1 antibody and subjected to biochemical analysis by Western Blot. Briefly, 500 µg of total protein was immunoprecipitated using a specific Anti-ADAR1 antibody. The immunoprecipitated product was loaded onto polyacrylamide gel and transferred onto the PVDF membrane. The membrane was then incubated with specific anti-ADAR1 antibodies for signal detection. The analysis allowed to highlight the presence of homodimeric complexes ADAR1/ADAR1 and of the monomeric forms of ADAR1 p150 and p110. The quantitative determination of the homodimer complex of ADAR1, performed by densitometry, was expressed as the ratio between the density of the band of the homodimer ADAR1/ADAR1 and that of the monomer ADAR1 p110.

miR-101 [3] = test: Expression of miR-101 in human monocytes stimulated with LPS (Real-time PCR)
Method: In order to study the effect of MT8 on the activity of miR-101 in the pro-inflammatory setting, human monocytes isolated from buffy coat were stimulated with 1 µg/ml of LPS in the presence or absence of MT8 at the final concentration of 1 0 µM. After 60 minutes, the cells were lysed in TRIzol for the extraction of total RNA, which was then used for the quantification of miR-101 by Real-time PCR. […] The quantitative determination was performed using the 5 s ribosomal RNA gene as housekeeping and the relative increase calculated applying the 2^-ΔCt method.

miR-101 [4] = test: miR-101 expression levels in HEK-293 TrkA cells following ADAR1 knock-down (Real-time PCR); conditions: 10 µM MT8, 60 minutes, FIG. 4
Method: In order to study the effect of MT8 on miR-101 regulatory mechanisms under metabolic stress conditions, HEK-293 TrkA cells were transfected with ADAR1-specific siRNA or control siRNA (scrambled) at the final concentration of 50 nM. After 48 hours, the cells were incubated in serum-free medium for 18 hours and stimulated with MT8 at a concentration of 10 µM for a further 60 minutes. The cells were lysed with TRIzol for the extraction of total RNA, used for the assay of miR-101 by Real Time PCR. The quantitative determination of miR-101 was performed using the 5 s ribosomal RNA gene as the housekeeping gene and the relative increase calculated applying the 2^-ΔCt method.

O=C(O)[C@H]1O[C@H]2O[C@@H]1C(=O)N(Cc1ccccc1)[C@@H]2Cc1ccccc1 [MT8, (1S, 4R, 5R, 7S) -3,4-dibenzyl-2-oxo-6,8-dioxa-3-azabicyclo[3.2.1]octane-7-carboxylic acid L-lysine Salt]
reduction of IL-1β production ([1]; FIG. 1A): about 17%
reduction of TNF-α production ([1]; FIG. 1C): about 17%
reduction of IL-6 production ([1]; FIG. 1E): about 70%
reduction of IL-1β production ([2]; FIG. 1B): over 50%
reduction of TNF-α production ([2]; FIG. 1D): 19%
reduction of IL-6 production ([2]; FIG. 1F): about 65%
homodimeric (active) form of ADAR1, ratio homodimer ADAR1/ADAR1 to monomer ADAR1 p110, compared to untreated cells (ADAR1): high increase
time of exposure until decrease of miR-101 (miR-101 [3]; cellular and tissue systems exposed to MT8): ≤ 1 h
miR-101 expression level compared to monocytes treated with LPS alone (miR-101 [3]; human monocytes, 1 µg/ml LPS, MT8 1 0 µM, 60 minutes, FIG. 3): strong decrease
ability to decrease miR-101 expression in cells transfected with specific siRNA for ADAR1 (miR-101 [4]; ADAR1-specific siRNA 50 nM): not
miR-101 expression level in scrambled siRNA-transfected cells (miR-101 [4]; control (scrambled) siRNA 50 nM): marked decrease

— patent US20230165870A1, “6,8-dioxa-3-azabicyclo[3.2.l]Octane Carboxylic Acids And Their Derivatives For Use In The Treatment Of Inflammations” (MINERVA S.R.L., priority 2020, published 2023)
